Values of other authors in patent US20240189234A1, “SILICON PARTICLES FOR DRUG DELIVERY” (NACAMED AS, priority 2021, published 2024).

Conditions: calculated log P values from Foye's Principles of Medicinal Chemistry

| SMILES | log P |
| --- | --- |
| CC[C@H]1CN2CCc3cc(OC)c(OC)cc3[C@@H]2C[C@@H]1C[C@H]1NCCc2cc(OC)c(OC)cc21 [Emetine] | 3.82 |
| NCCCC[C@H](N[C@@H](CCc1ccccc1)C(=O)O)C(=O)N1CCC[C@H]1C(=O)O [Lisinopril] | 3.47 |
| CN(C)CCC=C1c2ccccc2CCc2ccccc21 [amitriptyline] | 4.41 |
| c1ccc(CN(CC2=NCCN2)c2ccccc2)cc1 [antazoline] | 3.58 |
| CNCC[C@@H](Oc1ccccc1C)c1ccccc1 [atomoxetine] | 3.36 |
| CCOC(=O)OC(C)OC(=O)[C@@H]1N2C(=O)[C@@H](NC(=O)[C@H](N)c3ccccc3)[C@H]2SC1(C)C (stereo partly drawn) [bacampicillin] | 3.52 |
| Cc1ccc(C(=O)Oc2ccc(C(O)CNC(C)(C)C)cc2OC(=O)c2ccc(C)cc2)cc1 (stereo not drawn) [bitolterol] | 4.16 |
| COc1ccccc1Oc1c(NS(=O)(=O)c2ccc(C(C)(C)C)cc2)nc(-c2ncccn2)nc1OCCO [bosentan] | 4.36 |
| CN(C)CCOC(c1ccccc1)c1ccc(Br)cc1 (stereo not drawn) [bromodiphenhydramine] | 4.03 |
| CN(C)CCC(c1ccc(Br)cc1)c1ccccn1 (stereo not drawn) [brompheniramine] | 3.24 |
| CCCCN1CCCCC1C(=O)Nc1c(C)cccc1C (stereo not drawn) [bupivacaine] | 3.31 |
| CCCCN(CCCC)CCCOC(=O)c1ccc(N)cc1 [butacaine] | 4.62 |
| Oc1ccc2c(c1)[C@@]13CCCC[C@@]1(O)[C@@H](C2)N(CC1CCC1)CC3 [butorphanol] | 3.54 |
| CC1(C)[C@@H](OC(=O)CCC(=O)O)CC[C@]2(C)[C@H]3C(=O)C=C4[C@@H]5C[C@@](C)(C(=O)O)CC[C@]5(C)CC[C@@]4(C)[C@]3(C)CC[C@@H]12 [carbenoxolone] | 6.63 |
| CN(C)CCCN1c2ccccc2Sc2ccc(Cl)cc21 [chlorpromazine] | 5.35 |
| CN(C)CC/C=C1/c2ccccc2Sc2ccc(Cl)cc21 [chlorprothixene] | 5.31 |
| C=C[C@H]1C[N@@]2CC[C@H]1C[C@@H]2[C@@H](O)c1ccnc2ccccc12 [cinchonine] | 3.69 |
| CCOC(=O)C(C)(C)Oc1ccc(Cl)cc1 [clofibrate] | 3.88 |
| Clc1ccccc1C(c1ccccc1)(c1ccccc1)n1ccnc1 [clotrimazole] | 4.92 |
| C[C@H]1[C@H]2Cc3ccc(O)cc3[C@]1(C)CCN2CC1CC1 [cyclazocine] | 3.52 |

| SMILES | log P |
| --- | --- |
| CN(C)CCC=C1c2ccccc2C=Cc2ccccc21 [cyclobenzaprine] | 6.19 |
| CN1CCC(=C2c3ccccc3C=Cc3ccccc32)CC1 [cyproheptadine] | 4.92 |
| COC(=O)[C@H]1[C@H]2C[C@@H]3c4[nH]c5ccccc5c4CCN3C[C@H]2C[C@@H](OC(=O)c2cc(OC)c(OC)c(OC)c2)[C@@H]1OC [deserpidine] | 4.95 |
| CCN[C@@H](C)Cc1cccc(C(F)(F)F)c1 [dextrofenfluramine] | 3.55 |
| COc1ccc2c(c1)[C@]13CCCC[C@@H]1[C@H](C2)N(C)CC3 [dextromethorphan] | 3.89 |
| CN(C)CCN1C(=O)c2ccccc2N(C)c2ccccc21 [dibenzepin] | 3.26 |
| CCCCOc1cc(C(=O)NCCN(CC)CC)c2ccccc2n1 [dibucaine] | 4.40 |
| Cc1onc(-c2c(Cl)cccc2Cl)c1C(=O)N[C@@H]1C(=O)N2[C@@H]1SC(C)(C)[C@@H]2C(=O)O [dicloxacillin] | 3.10 |
| CCN(CC)CCOC(=O)C1(C2CCCCC2)CCCCC1 [dicyclomine] | 4.64 |
| CCN(CC)CCN1c2ccccc2Sc2ccccc21 [diethazine] | 5.55 |
| O=C(O)c1cc(-c2ccc(F)cc2F)ccc1O [diflunisal] | 3.65 |
| CC(C)[C@@]1(NC(=O)[C@@H]2C[C@@H]3c4cccc5[nH]cc(c45)C[C@H]3N(C)C2)O[C@@]2(O)[C@@H]3CCCN3C(=O)[C@H](Cc3ccccc3)N2C1=O [dihydroergocristine] | 6.55 |
| CN1C[C@H](C(=O)N[C@]2(C)O[C@@]3(O)[C@@H]4CCCN4C(=O)[C@H](Cc4ccccc4)N3C2=O)C[C@@H]2c3cccc4[nH]cc(c34)C[C@H]21 [dihydroergotamine] | 5.69 |
| CCCCc1cc2ccccc2c(OCCN(C)C)n1 [dimethisoquin] | 4.04 |
| O=C(Nc1ccccc1)OCC(CN1CCCCC1)OC(=O)Nc1ccccc1 (stereo not drawn) [diperodon] | 4.65 |
| N#CC(CCN1CCC(C(=O)O)(c2ccccc2)CC1)(c1ccccc1)c1ccccc1 [diphenoxin] | 3.97 |
| CN1CCC(OC(c2ccccc2)c2ccccc2)CC1 [diphenylpyraline] | 3.43 |
| CCC(=O)C(CC(C)N1CCCCC1)(c1ccccc1)c1ccccc1 (stereo not drawn) [dipipanone] | 5.10 |
| CN(C)CCC=C1c2ccccc2COc2ccccc21 [doxepin] | 3.85 |
| O=C(CCCN1CC=C(n2c(=O)[nH]c3ccccc32)CC1)c1ccc(F)cc1 [droperidol] | 3.10 |

| SMILES | log P |
| --- | --- |
| CCN(CC)C(=O)/C(C#N)=C/c1cc(O)c(O)c([N+](=O)[O-])c1 [entacapone] | 3.02 |
| CN1C[C@H](C(=O)N[C@]2(C)O[C@@]3(O)[C@@H]4CCCN4C(=O)[C@H](Cc4ccccc4)N3C2=O)C=C2c3cccc4[nH]cc(c34)C[C@H]21 [ergotamine] | 7.37 |
| C[C@]12CC[C@@H]3c4ccc(O)cc4CC[C@H]3[C@@H]1CCC2=O [estrone] | 3.62 |
| CCN(CC)C(C)CN1c2ccccc2Sc2ccccc21 (stereo not drawn) [ethopropazine] | 4.77 |
| CCCN(CC)C(CC)C(=O)Nc1c(C)cccc1C (stereo not drawn) [etidocaine] | 3.57 |
| O=C(O)Cc1ccccc1Oc1ccc(Cl)cc1Cl [fenclofenac] | 4.59 |
| CCNC(C)Cc1cccc(C(F)(F)F)c1 (stereo not drawn) [fenfluramine] | 3.55 |
| CC(C(=O)O)c1cccc(Oc2ccccc2)c1 (stereo not drawn) [fenoprofen] | 3.72 |
| CC(C)C(=O)Oc1ccc(CO)cc1[C@H](CCN(C(C)C)C(C)C)c1ccccc1 [fesoterodine] | 5.08 |
| CC(C)(C)NC(=O)[C@H]1CC[C@H]2[C@@H]3CC[C@H]4NC(=O)C=C[C@]4(C)[C@H]3CC[C@]12C [finasteride] | 3.83 |
| O=C(O)c1ccccc1Nc1cccc(C(F)(F)F)c1 [flufenamic acid] | 5.22 |
| COc1ccc(-c2nc(C(F)(F)F)[nH]c2-c2ccc(OC)cc2)cc1 [flumizole] | 4.26 |
| CNCCC(Oc1ccc(C(F)(F)F)cc1)c1ccccc1 (stereo not drawn) [fluoxetine] | 3.93 |
| OCCN1CCN(CC/C=C2/c3ccccc3Sc3ccc(C(F)(F)F)cc32)CC1 [flupenthixol] | 3.67 |
| CCCCCCC(=O)OCCN1CCN(CCCN2c3ccccc3Sc3ccc(C(F)(F)F)cc32)CC1 [fluphenazine enanthate] | 7.29 |
| CCN(CC)CCN1C(=O)CN=C(c2ccccc2F)c2cc(Cl)ccc21 [flurazepam] | 4.84 |
| CC(C(=O)O)c1ccc(-c2ccccc2)c(F)c1 (stereo not drawn) [flurbiprofen] | 3.66 |
| CC(C)C(=O)Nc1ccc([N+](=O)[O-])c(C(F)(F)F)c1 [flutamide] | 3.52 |
| CC(=O)O[C@H]1C[C@@]2(C)[C@@H](C[C@@H](O)[C@H]3[C@@]4(C)CC[C@@H](O)[C@@H](C)[C@@H]4CC[C@@]32C)/C1=C(\CCC=C(C)C)C(=O)O [fusidic acid] | 5.76 |
| COc1ccc(Cl)cc1C(=O)NCCc1ccc(S(=O)(=O)NC(=O)NC2CCCCC2)cc1 [glibenclamide] | 3.08 |
